In US20080039442A1, “Compounds With Kv4 Ion Channel Activity” (Devgen NV, priority 2004, published 2008) one finds IC50 and remaining activity data, which are given here for five compounds.

Like-named read-outs stand apart in the source and are kept apart here.

This assay has as its target T1, human Kv4.3/KChIP2.2 potassium channel (Homo sapiens, UniProt Q9UK17).
T1 construct: expressed in transfected cells
T1 sequence (Q9UK17 1-655): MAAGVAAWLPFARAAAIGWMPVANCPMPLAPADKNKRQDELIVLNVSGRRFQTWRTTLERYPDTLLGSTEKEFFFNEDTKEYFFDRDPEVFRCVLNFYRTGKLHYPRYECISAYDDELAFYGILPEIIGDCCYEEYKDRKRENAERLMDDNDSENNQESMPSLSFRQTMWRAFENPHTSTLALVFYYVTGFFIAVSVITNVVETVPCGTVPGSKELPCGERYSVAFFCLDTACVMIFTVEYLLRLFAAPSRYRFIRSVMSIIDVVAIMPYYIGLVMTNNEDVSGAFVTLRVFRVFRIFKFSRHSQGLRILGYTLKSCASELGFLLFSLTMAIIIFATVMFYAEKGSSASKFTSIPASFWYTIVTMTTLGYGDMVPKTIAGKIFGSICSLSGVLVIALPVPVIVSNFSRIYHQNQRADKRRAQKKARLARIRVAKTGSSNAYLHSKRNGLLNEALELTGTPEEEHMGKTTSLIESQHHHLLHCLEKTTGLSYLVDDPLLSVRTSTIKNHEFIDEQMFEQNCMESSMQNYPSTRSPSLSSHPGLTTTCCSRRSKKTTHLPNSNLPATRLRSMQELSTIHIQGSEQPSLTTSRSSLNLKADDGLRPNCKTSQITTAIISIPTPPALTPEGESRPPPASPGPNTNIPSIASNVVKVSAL
T1 sequence (Q9NS61 1-270 partner): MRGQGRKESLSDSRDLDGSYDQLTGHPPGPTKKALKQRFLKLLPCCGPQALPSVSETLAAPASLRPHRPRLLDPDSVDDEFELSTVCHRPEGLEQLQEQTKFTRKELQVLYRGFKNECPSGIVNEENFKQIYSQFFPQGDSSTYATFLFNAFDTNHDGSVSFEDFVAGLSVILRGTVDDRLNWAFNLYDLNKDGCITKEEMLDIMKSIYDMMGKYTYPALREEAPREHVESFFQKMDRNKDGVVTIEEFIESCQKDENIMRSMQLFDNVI
The experiment in a line: Whole cell patch clamp, CHO-K1 cells stably expressing Kv4.3/KChIP2.2. In kind it is cell-based. Conditions: for remaining activity at 1 µM: CHO-K1. A digest of the protocol:
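Whole-cell patch clamp at 20-25 °C, bath pH 7.4 with 4 mM KCl, pipette 130 mM KCl/10 mM EGTA/5 mM Na2ATP. Compound at […] (≤0.1% DMSO), n=2; pulses from −100 mV to +40 mV for 300 ms at 0.1 Hz, P/n (n=5) leak-corrected, cells with 1–50 nA currents only.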

The mark [1] stands for this setting: Table 12, read-out: Kv4.3 charge IC50.
Setting [2] is: Table 6, estimated from 2 μM, hill=1, ymax=100, read-out: IC50 (μM) Kv4.3.
Where [3] appears, read: read-out: Kv4.3 charge in %: remaining current measured after application of the compound and relative to the blank.
Setting [4] is: read-out: Kv4.3 peak in %: remaining peak height measured after application of the compound and relative to the blank.

As for `C[C@@H](NC(=O)c1cc2cc(Cl)ccc2o1)c1ccc([N+](=O)[O-])cc1` [Compound 1, 5-chloro-benzofuran-2-carboxylic acid [(R)-1-(4-nitro-phenyl)-ethyl]-amide], the IC50 under setting [1] came out at 2.08 µM.

For “5-chloro-benzofuran-2- carboxylic acid [3- (10,11-dihydro- dibenzo[a,d]cyclohepten- 5-ylidene)-propyl]- methyl-amide [Compound 5]”, the IC50 under setting [2] is 16 µM and the IC50 under setting [1] turned out to be 16 µM.

As for “5-chloro-benzofuran-2- carboxylic acid 2,4- dimethoxy- benzylamide [Compound 2]”, the IC50 reads like this: under setting [2], 1.75 µM; (Table 9, read-out: IC50 (μM) Kv4.3) 1.75 µM; under setting [1], 1.75 µM.

Turning to `O=C(NCc1ccc(OC(F)(F)F)cc1)c1cc2cc(Cl)ccc2o1` [Compound 89, 5-chloro-benzofuran-2-carboxylic acid 4-trifluoromethoxy-benzylamide], the remaining activity at 1 µM under setting [3] was determined as 37% and the remaining activity at 1 µM under setting [4] worked out at 77%.

As to `Cc1c(C(=O)NCc2ccc(F)c(C(F)(F)F)c2)sc2ccc(Cl)cc12` [Compound 107, 5-chloro-3-methyl-benzo[b]thiophene-2-carboxylic acid 4-fluoro-3-trifluoromethyl-benzylamide], the remaining activity at 1 µM under setting [3] was 30% and the remaining activity at 1 µM under setting [4] is 87%.
